Read-outs that look alike come from different tables or passages of the source.
Assays:
Test in all cases: MIC alone and checkerboard with EDTA or polymyxin B
Format in all cases: cell-based
K. pneumoniae = conditions: for MIC of EDTA in combination with NCL195: with NCL195 4 μg/ml; for MIC: Klebsiella pneumoniae, read-out: MIC, agent alone
Procedure: (§1) MICs for NCL812 and its analogs (serial two-fold dilutions commencing at 128 μg/ml) were determined (in duplicate) in round bottom 96-well microtitre trays (Sarstedt 82.1582.001), using the broth micro-dilution method recommended by the Clinical and Laboratory Standards Institute (CLSI). […] MIC50, MIC90 and MIC range for NCL812, NCL195 and NCL219 were calculated against each S. pneumoniae, S. aureus or VRE isolate. To assess the potential activity of NCL195 against Gram-negative bacteria, MICs against Acinetobacter spp, E. coli, K. pneumoniae, P. aeruginosa, Proteus spp and Neisseria meningitidis were performed in the presence or absence of 0.08 mM-20 mM EDTA in a standard checkerboard assay.

A. baumannii = conditions: for MIC: Acinetobacter baumannii, read-out: MIC, agent alone; for MIC of polymyxin B in combination with NCL195: with NCL195 0.5 μg/ml
Procedure: as §1

P. aeruginosa = conditions: for MIC: Pseudomonas aeruginosa, read-out: MIC, agent alone; for MIC of polymyxin B in combination with NCL195: with NCL195 1 μg/ml
Procedure: as §1

E. coli = conditions: for MIC: Escherichia coli, read-out: MIC, agent alone; for MIC of polymyxin B in combination with NCL195: with NCL195 0.25 μg/ml
Procedure: as §1

O=C(O)CN(CCN(CC(=O)O)CC(=O)O)CC(=O)O [EDTA, Ethylenediaminetetraacetic acid]
MIC of EDTA in combination with NCL195 (K. pneumoniae; K. pneumoniae ATCC 4352): 10000 µM
MIC of EDTA in combination with NCL195 (K. pneumoniae; K. pneumoniae ATCC 33495): 10000 µM
MIC (K. pneumoniae; ATCC4352, K. pneumoniae ATCC 4352): > 30000 µM
MIC (K. pneumoniae; ATCC33495, K. pneumoniae ATCC 33495): > 30000 µM
MIC of EDTA in combination with NCL195 (A. baumannii; A. baumannii ATCC 12457, with NCL195 4 μg/ml): 250 µM
MIC of EDTA in combination with NCL195 (A. baumannii; A. baumannii ATCC 19606, with NCL195 2 μg/ml): 500 µM
MIC (A. baumannii; ATCC12457, A. baumannii ATCC 12457): 500 µM
MIC (A. baumannii; ATCC19606, A. baumannii ATCC 19606): 1000 µM
MIC of EDTA in combination with NCL195 (P. aeruginosa; P. aeruginosa ATCC 27853, with NCL195 2 μg/ml): 5000 µM
MIC of EDTA in combination with NCL195 (P. aeruginosa; P. aeruginosa PA01, with NCL195 0.25 μg/ml): 1250 µM
MIC (P. aeruginosa; ATCC27853, P. aeruginosa ATCC 27853): 10000 µM
MIC (P. aeruginosa; P. aeruginosa PA01): 2500 µM
MIC of EDTA in combination with NCL195 (E. coli; E. coli ATCC 11229, with NCL195 8 μg/ml): 625 µM
MIC of EDTA in combination with NCL195 (E. coli; E. coli ATCC 25922, with NCL195 4 μg/ml): 2500 µM
MIC (E. coli; ATCC11229, E. coli ATCC 11229): 2500 µM
MIC (E. coli; ATCC25922, E. coli ATCC 25922): 10000 µM

Polymyxin B sulfate
MIC, agent alone (K. pneumoniae; K. pneumoniae ATCC 4352): 0.25 µg/mL
MIC of polymyxin B in combination with NCL195 (K. pneumoniae; K. pneumoniae ATCC 4352, with NCL195 0.5 μg/ml): 0.125 µg/mL
MIC, agent alone (K. pneumoniae; K. pneumoniae ATCC 33495): 0.25 µg/mL
MIC of polymyxin B in combination with NCL195 (K. pneumoniae; K. pneumoniae ATCC 33495, with NCL195 0.25 μg/ml): 0.125 µg/mL
MIC, agent alone (A. baumannii; A. baumannii ATCC 12457): 0.5 µg/mL
MIC of polymyxin B in combination with NCL195 (A. baumannii; A. baumannii ATCC 12457): 0.125 µg/mL
MIC, agent alone (A. baumannii; A. baumannii ATCC 19606): 0.5 µg/mL
MIC of polymyxin B in combination with NCL195 (A. baumannii; A. baumannii ATCC 19606): 0.125 µg/mL
MIC, agent alone (P. aeruginosa; P. aeruginosa ATCC 27853): 0.5 µg/mL
MIC of polymyxin B in combination with NCL195 (P. aeruginosa; P. aeruginosa ATCC 27853): 0.125 µg/mL
MIC, agent alone (P. aeruginosa; P. aeruginosa PA01): 0.5 µg/mL
MIC of polymyxin B in combination with NCL195 (P. aeruginosa; P. aeruginosa PA01): 0.125 µg/mL
MIC, agent alone (E. coli; E. coli ATCC 11229): 0.25 µg/mL
MIC of polymyxin B in combination with NCL195 (E. coli; E. coli ATCC 11229): 0.125 µg/mL
MIC, agent alone (E. coli; E. coli ATCC 25922): 0.25 µg/mL
MIC of polymyxin B in combination with NCL195 (E. coli; E. coli ATCC 25922): 0.125 µg/mL

— PMC5584945, “Evaluation of robenidine analog NCL195 as a novel broad-spectrum antibacterial agent” (PLoS ONE, 2017)
